# In patent US20240238422A1 (Osprey Biopharmaceuticals, Inc., priority 2021, published 2024):
# Assays:
# Siglec-2 (CD22) = conditions: SAM for Siglec-2 (CD22); value of the cited reference; cited from earlier work
# mouse CD22 = molecular target: T1, mouse CD22 (Mus musculus, UniProt P35329); assay: SPR binding of synthetic Siglec ligands to mouse CD22 ectodomain (Biacore 8K+); conditions: for Kd: SPR, alkyne-terminating precursors of the PFP linkers, read-out: Mouse Siglec-2 Binding Affinity; for Mouse Siglec-2 Binding Affinity: grade in words for the conjugatable Siglec ligand-linker
# T1 construct: synthetic Siglec ligands for recombinant human and mouse CD22 ectodomains
# T1 sequence (P35329 22-708 limits assumed): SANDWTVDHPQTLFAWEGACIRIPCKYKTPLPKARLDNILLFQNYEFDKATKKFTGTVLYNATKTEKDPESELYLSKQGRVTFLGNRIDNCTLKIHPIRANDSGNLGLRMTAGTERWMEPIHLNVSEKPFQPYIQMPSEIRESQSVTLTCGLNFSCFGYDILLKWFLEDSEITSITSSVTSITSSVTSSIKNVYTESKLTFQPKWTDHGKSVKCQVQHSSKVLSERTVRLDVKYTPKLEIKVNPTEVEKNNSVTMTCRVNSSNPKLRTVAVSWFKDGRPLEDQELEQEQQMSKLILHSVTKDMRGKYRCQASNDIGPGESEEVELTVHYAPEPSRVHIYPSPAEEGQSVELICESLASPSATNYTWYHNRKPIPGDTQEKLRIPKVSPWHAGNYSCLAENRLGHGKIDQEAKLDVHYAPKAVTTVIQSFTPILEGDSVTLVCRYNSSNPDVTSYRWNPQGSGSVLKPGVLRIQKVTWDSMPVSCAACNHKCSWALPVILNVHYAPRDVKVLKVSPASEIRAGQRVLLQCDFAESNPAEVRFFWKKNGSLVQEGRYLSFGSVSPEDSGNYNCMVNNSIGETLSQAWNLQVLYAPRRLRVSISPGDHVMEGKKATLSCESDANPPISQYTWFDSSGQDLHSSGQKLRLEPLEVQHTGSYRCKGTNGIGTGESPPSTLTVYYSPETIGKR
# Method: (§1) The following ligands were evaluated for mouse and human CD22 binding: 1) BPC-Neu5Gc PEG (Cpd. No. 26463), 2) BPC-Neu5Gc GAL (Cpd. No. 26339), 3) MPB-Neu5Ac PEG (Cpd. No. 26334), 4) MPB-Neu5Ac GAL (Cpd. No. 26409), 5) Neu5Gc PEG (Cpd. No. 26591). All tested compounds are alkyne-terminating precursors of PFP-terminating, conjugatable Siglec Linker structures used in conjugates in the following examples.
# (§2) Binding assays for synthetic CD22 ligand binding to CD22 receptor ectodomain were run on a Biacore 8K+ instrument (Cytiva). Surface preparation for CD22 conjugates binding to human or mouse CD22 protein consisted of two steps, covalent immobilization of streptavidin followed by capture of Avi-tagged and biotinylated human CD22-Fc fusion (R&D Systems, Cat #AV11968-050) and a mono-Fc fusion of mouse CD22. Using standard amine coupling protocols, Streptavidin (Invitrogen, Cat #: 434301) was immobilized to a Cytiva CM5 chip (Cytiva, Cat #BR100530) by injecting at 100 ug/mL in Sodium Acetate, pH 4.5 (Cytiva, Cat #BR100350) on both flow cells, yielding a final response of 2500 RU. Capture of biotinylated mono Fc human CD22 was performed on channels 1-4 and mouse CD22 on channels 5-8 on the active flow cell (2) and the reference flow cell (1) was kept as unmodified streptavidin to account for any non-specific binding. Human CD22 or mouse CD22 (mono-Fc fusion, 5 μg/mL) was injected on the active flow cell (2) for 90 seconds at 5 μL/min, yielding about 210 RU of captured constructs.
# (§3) Binding experiments of Siglec-ligand conjugated proteins were performed on the surfaces prepared above in HBS-EP+ (10 mM HEPES, 150 mM NaCl, 3 mM EDTA, 0.05% Tween-20, pH 7.5) as the running buffer. Conjugates were serially diluted 1:1 in running buffer from 1 μM to 31.25 nM and injected over both the reference and active flow cells for 90 seconds at 30 μL/min. The conjugates were then allowed to dissociate from the surface for 300 seconds. No regeneration was required as the conjugates completely dissociated from the surface after 30 seconds.
# human CD22 = molecular target: T2, human CD22 (Homo sapiens, UniProt P20273); assay: SPR binding of synthetic Siglec ligands to human CD22 ectodomain (Biacore 8K+); conditions: for Kd: SPR, alkyne-terminating precursors of the PFP linkers, read-out: Human Siglec-2 Binding Affinity; for Human Siglec-2 Binding Affinity: grade in words for the conjugatable Siglec ligand-linker
# T2 construct: Fc (human CD22-Fc fusion); purchased R&D Systems AV11968-050
# Method: as §1, §2, §3
# T2 sequence (P20273 20-687 limits assumed): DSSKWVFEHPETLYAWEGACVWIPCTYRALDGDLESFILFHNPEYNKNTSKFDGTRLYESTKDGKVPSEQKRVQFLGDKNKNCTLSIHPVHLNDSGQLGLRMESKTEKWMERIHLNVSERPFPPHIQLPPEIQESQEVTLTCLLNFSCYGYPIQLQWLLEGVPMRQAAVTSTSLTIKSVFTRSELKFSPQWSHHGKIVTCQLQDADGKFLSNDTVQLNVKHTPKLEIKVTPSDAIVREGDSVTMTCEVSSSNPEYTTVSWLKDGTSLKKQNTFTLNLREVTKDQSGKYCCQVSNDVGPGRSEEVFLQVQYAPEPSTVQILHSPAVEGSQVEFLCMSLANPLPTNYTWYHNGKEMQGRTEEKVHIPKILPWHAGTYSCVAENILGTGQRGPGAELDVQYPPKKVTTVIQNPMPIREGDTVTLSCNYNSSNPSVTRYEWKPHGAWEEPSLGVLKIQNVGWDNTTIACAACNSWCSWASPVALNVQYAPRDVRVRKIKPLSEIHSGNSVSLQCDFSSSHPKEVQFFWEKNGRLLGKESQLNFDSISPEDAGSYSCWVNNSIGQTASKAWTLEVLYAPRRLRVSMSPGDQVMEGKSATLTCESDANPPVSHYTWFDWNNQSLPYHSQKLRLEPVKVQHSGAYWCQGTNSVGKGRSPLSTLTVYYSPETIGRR
SMILES,IC50 (Siglec-2 (CD22)) [µM],Kd (mouse CD22) [µM],Kd (human CD22) [µM],Mouse Siglec-2 Binding Affinity (mouse CD22),Human Siglec-2 Binding Affinity (human CD22)
CO[C@]1(C(=O)O)CC(O)[C@@H](NC(C)=O)C([C@H](O)[C@H](O)CNC(=O)c2ccc(-c3ccccc3)cc2)O1 (stereo partly drawn),4,,,,
O=C(Cc1ccc(-c2ccc(O)cc2)cc1)NC[C@@H](O)C(O)C1O[C@@](OCc2cccc(Cl)c2Cl)(C(=O)O)CC(O)[C@H]1NS(=O)(=O)c1ccccc1[N+](=O)[O-] (stereo partly drawn),0.06,,,,
CO[C@]1(C(=O)O)CC(NS(=O)(=O)c2ccc(C)cc2)[C@@H](NC(C)=O)C([C@H](O)[C@H](O)CNC(=O)c2ccc(-c3ccccc3)cc2)O1 (stereo partly drawn),0.15,,,,
"C#CCOCCOCCO[C@]1(C(=O)O)C[C@H](O)[C@@H](NC(C)=O)[C@H]([C@H](O)[C@H](O)CNC(=O)c2cccc(Oc3ccccc3)c2)O1 [Cpd. No. 26334, (2R,4S,5R,6R)-5-acetamido-6-((1R,2R)-1,2-dihydroxy-3-(3-phenoxybenzamido)propyl)-4-hydroxy-2-(2-(2-(prop-2-yn-1-yloxy)ethoxy)ethoxy)tetrahydro-2H-pyran-2-carboxylic acid]",,> 100,0.93,,
"C#CCOCCOCCO[C@]1(C(=O)O)C[C@H](O)[C@@H](NC(=O)CO)[C@H]([C@H](O)[C@H](O)CO)O1 [Cpd. No. 26591, (2R,4S,5R,6R)-4-hydroxy-5-(2-hydroxyacetamido)-2-(2-(2-(prop-2-yn-1-yloxy)ethoxy)ethoxy)-6-((1R,2R)-1,2,3-trihydroxypropyl)tetrahydro-2H-pyran-2-carboxylic acid]",,> 1000,> 450,,
"O=C(CCOCCOCCn1cc(COCCOCCOCCOCCO)nn1)NCCCC[C@@H](NC(=O)CCCNC(=O)CCOCCOCCn1cc(COCCOCCOCCOCCO)nn1)C(=O)N[C@H](CCCCNC(=O)CCOCCOCCn1cc(COCCOCCOCCOCCO)nn1)C(=O)NCCOCCOCCOCCOCCC(=O)Oc1c(F)c(F)c(F)c(F)c1F [Cpd. No. 26534, perfluorophenyl (16R,19R)-1-(4-(13-hydroxy-2,5,8,11-tetraoxatridecyl)-1H-1,2,3-triazol-1-yl)-16,19-bis(4-(3-(2-(2-(4-(13-hydroxy-2,5,8,11-tetraoxatridecyl)-1H-1,2,3-triazol-1-yl)ethoxy)ethoxy)propanamido)butyl)-9,14,17,20-tetraoxo-3,6,24,27,30,33-hexaoxa-10,15,18,21-tetraazahexatriacontan-36-oate]",,,,No Binding,No Binding
O=C(CCOCCOCCn1cc(CCO[C@@H]2O[C@H](CO[C@]3(C(=O)O)C[C@H](O)[C@@H](NC(=O)CO)[C@H]([C@H](O)[C@H](O)CNC(=O)Cc4ccc(-c5ccccc5)cc4)O3)[C@H](O)[C@H](O)[C@H]2O)nn1)NCCCCC(NC(=O)CCCNC(=O)CCOCCOCCn1cc(CCO[C@@H]2O[C@H](CO[C@]3(C(=O)O)C[C@H](O)[C@@H](NC(=O)CO)[C@H]([C@H](O)[C@H](O)CNC(=O)Cc4ccc(-c5ccccc5)cc4)O3)[C@H](O)[C@H](O)[C@H]2O)nn1)C(=O)NCCOCCOCCOCCOCCC(=O)Oc1c(F)c(F)c(F)c(F)c1F (mixture of isomers) [Cpd. No. 26416],,,,Strong,Strong
"CC(=O)N[C@H]1[C@H]([C@H](O)[C@H](O)CNC(=O)c2cccc(Oc3ccccc3)c2)O[C@@](OC[C@H]2O[C@@H](OCCc3cn(CCOCCOCCOCCOCCC(=O)Oc4c(F)c(F)c(F)c(F)c4F)nn3)[C@H](O)[C@@H](O)[C@H]2O)(C(=O)O)C[C@@H]1O [Cpd. No. 24906, (2R,4S,5R,6R)-5-acetamido-6-((1R,2R)-1,2-dihydroxy-3-(3-phenoxybenzamido)propyl)-4-hydroxy-2-(((2R,3R,4S,5R,6R)-3,4,5-trihydroxy-6-(2-(1-(15-oxo-15-(perfluorophenoxy)-3,6,9,12-tetraoxapentadecyl)-1H-1,2,3-triazol-4-yl)ethoxy)tetrahydro-2H-pyran-2-yl)methoxy)tetrahydro-2H-pyran-2-carboxylic acid]",,,,V. weak,Strong
"CC(=O)N[C@H]1[C@H]([C@H](O)[C@H](O)CNC(=O)c2cccc(Oc3ccccc3)c2)O[C@@](OCCOCc2cn(CCOCCOCCC(=O)NCCCC[C@H](NC(=O)CCCNC(=O)CCOCCOCCn3cc(COCCO[C@]4(C(=O)O)C[C@H](O)[C@@H](NC(C)=O)[C@H]([C@H](O)[C@H](O)CNC(=O)c5cccc(Oc6ccccc6)c5)O4)nn3)C(=O)NCCOCCOCCOCCOCCC(=O)Oc3c(F)c(F)c(F)c(F)c3F)nn2)(C(=O)O)C[C@@H]1O [Cpd. No. 26289, (2R,2′R,4S,4′S,5R,5′R,6R,6′R)-2,2′-(((((((S)-9,14,22-trioxo-16-((15-oxo-15-(perfluorophenoxy)-3,6,9,12-tetraoxapentadecyl)carbamoyl)-3,6,25,28-tetraoxa-10,15,21-triazatriacontane-1,30-diyl)bis(1H-1,2,3-triazole-1,4-diyl))bis(methylene))bis(oxy))bis(ethane-2,1-diyl))bis(oxy))bis(5-acetamido-6-((1R,2R)-1,2-dihydroxy-3-(3-phenoxybenzamido)propyl)-4-hydroxytetrahydro-2H-pyran-2-carboxylic acid)]",,,,V. weak,Strong
"C#CCOCCOCCO[C@]1(C(=O)O)C[C@H](O)[C@@H](NC(=O)CO)[C@H]([C@H](O)[C@H](O)CNC(=O)Cc2ccc(-c3ccccc3)cc2)O1 [Cpd. No. 26463, (2R,4S,5R,6R)-6-((1R,2R)-3-(2-([1,1′-biphenyl]-4-yl)acetamido)-1,2-dihydroxypropyl)-4-hydroxy-5-(2-hydroxyacetamido)-2-(2-(2-(prop-2-yn-1-yloxy)ethoxy)ethoxy)tetrahydro-2H-pyran-2-carboxylic acid]",,9.6,1.3,,
"C#CCCO[C@@H]1O[C@H](CO[C@]2(C(=O)O)C[C@H](O)[C@@H](NC(C)=O)[C@H]([C@H](O)[C@H](O)CNC(=O)c3cccc(Oc4ccccc4)c3)O2)[C@H](O)[C@H](O)[C@H]1O [Cpd. No. 26409, (2R,4S,5R,6R)-5-acetamido-2-(((2R,3R,4S,5R,6R)-6-(but-3-yn-1-yloxy)-3,4,5-trihydroxytetrahydro-2H-pyran-2-yl)methoxy)-6-((1R,2R)-1,2-dihydroxy-3-(3-phenoxybenzamido)propyl)-4-hydroxytetrahydro-2H-pyran-2-carboxylic acid]",,> 100,1,,
O=C(CCOCCOCCn1cc(COCCOCCO[C@]2(C(=O)O)C[C@H](O)[C@@H](NC(=O)CO)[C@H]([C@H](O)[C@H](O)CO)O2)nn1)NCCCC[C@H](NC(=O)CCCNC(=O)CCOCCOCCn1cc(COCCOCCO[C@]2(C(=O)O)C[C@H](O)[C@@H](NC(=O)CO)[C@H]([C@H](O)[C@H](O)CO)O2)nn1)C(=O)NCCOCCOCCOCCOCCC(=O)Oc1c(F)c(F)c(F)c(F)c1F [Cpd. No. 26615],,,,Weak,Weak
